# Reference: ChEMBL document CHEMBL1201862, “PubChem BioAssay data set” (2004)
# Activity calls are given as the source filed them.
# Columns and labels:
# [1] = viability of HCT116 lacking mutant beta-catenin – cell-based, human colon tumor, dose response (AID 1045); format: functional;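 also: HCT116 colon tumor cells with beta catenin knocked out; cells exposed to compound for 60 hours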
# [2] = Luminescence Cell-Based Dose Retest to Confirm Inhibitors of Cancer Stem Cells. [Related pubchem assays (depositor defined):AID2717, AID2721]; format: functional; conditions: Homo sapiens
# [3] = viability of PTEN-deleted HCT116 cells – cell-based, HCT116 PTEN knockout, dose response (AID 1047); format: functional;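 also: HCT116 colon tumor cells with PTEN knocked out; cells exposed to compound for 60 hours before readout; potency for loss of cell viability measured by luminescence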
# X-box-binding protein 1 = X-box-binding protein 1 (Homo sapiens, UniProt P17861); format: functional, Cricetulus griseus;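 also: confirmatory dose-response counter-screen serving a CHOP assay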
# X-box-binding protein 1, sequence (P17861 whole entry): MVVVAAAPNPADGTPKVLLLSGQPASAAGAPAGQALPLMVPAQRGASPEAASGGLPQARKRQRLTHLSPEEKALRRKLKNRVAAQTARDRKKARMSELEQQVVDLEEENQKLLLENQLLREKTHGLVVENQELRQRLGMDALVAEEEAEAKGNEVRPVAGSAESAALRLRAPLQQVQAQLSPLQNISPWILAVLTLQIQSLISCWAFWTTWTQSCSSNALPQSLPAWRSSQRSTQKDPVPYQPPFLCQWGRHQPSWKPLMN
# [4] = target: Melanin-concentrating hormone receptor 1 (Homo sapiens, UniProt Q99705); assay: Fluorescence-based counterscreen for antagonists of the G-protein coupled receptor 7 (GPR7): cell-based high throughput dose response assay to identify antagonists of the melanin-concentrating hormone receptor 1 (MCHR1).; format: functional
# Melanin-concentrating hormone receptor 1, sequence (Q99705 whole entry): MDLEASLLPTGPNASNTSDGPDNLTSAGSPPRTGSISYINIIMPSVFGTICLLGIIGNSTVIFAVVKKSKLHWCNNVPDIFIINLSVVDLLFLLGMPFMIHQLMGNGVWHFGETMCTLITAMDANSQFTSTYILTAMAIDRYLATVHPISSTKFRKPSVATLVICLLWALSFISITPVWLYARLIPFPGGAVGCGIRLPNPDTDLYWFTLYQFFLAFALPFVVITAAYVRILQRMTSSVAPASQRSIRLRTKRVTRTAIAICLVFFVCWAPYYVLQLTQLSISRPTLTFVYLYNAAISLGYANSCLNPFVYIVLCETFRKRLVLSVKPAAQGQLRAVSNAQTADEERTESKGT
# [5] = target: T1, Neuropeptides B/W receptor type 1 (Homo sapiens, UniProt P48145); assay: Fluorescence-based dose response cell-based high throughput screening assay to identify antagonists of the G-protein coupled receptor 7 (GPR7). [Related pubchem assays: 1952 (Screening assay (GPR7 antagonists).), 1880 (Summary AID.)]; format: functional
# T1 sequence (P48145 whole entry): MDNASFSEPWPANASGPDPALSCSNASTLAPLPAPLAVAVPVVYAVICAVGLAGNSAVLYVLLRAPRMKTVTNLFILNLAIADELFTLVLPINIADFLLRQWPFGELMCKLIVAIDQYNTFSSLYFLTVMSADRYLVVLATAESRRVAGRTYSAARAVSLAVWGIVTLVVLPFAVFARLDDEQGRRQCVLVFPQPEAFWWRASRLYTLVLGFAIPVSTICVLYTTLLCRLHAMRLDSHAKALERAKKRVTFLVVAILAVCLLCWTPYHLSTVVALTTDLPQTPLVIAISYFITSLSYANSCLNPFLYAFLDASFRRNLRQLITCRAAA
# HEK293 [6] = assay: cells; conditions: Homo sapiens
# [7] = target: Nucleotide-binding oligomerization domain-containing protein 2 (Homo sapiens, UniProt Q9HC29); assay: PubChem AID 2334; format: functional
# Nucleotide-binding oligomerization domain-containing protein 2, sequence (Q9HC29 whole entry, the tested form may be a part): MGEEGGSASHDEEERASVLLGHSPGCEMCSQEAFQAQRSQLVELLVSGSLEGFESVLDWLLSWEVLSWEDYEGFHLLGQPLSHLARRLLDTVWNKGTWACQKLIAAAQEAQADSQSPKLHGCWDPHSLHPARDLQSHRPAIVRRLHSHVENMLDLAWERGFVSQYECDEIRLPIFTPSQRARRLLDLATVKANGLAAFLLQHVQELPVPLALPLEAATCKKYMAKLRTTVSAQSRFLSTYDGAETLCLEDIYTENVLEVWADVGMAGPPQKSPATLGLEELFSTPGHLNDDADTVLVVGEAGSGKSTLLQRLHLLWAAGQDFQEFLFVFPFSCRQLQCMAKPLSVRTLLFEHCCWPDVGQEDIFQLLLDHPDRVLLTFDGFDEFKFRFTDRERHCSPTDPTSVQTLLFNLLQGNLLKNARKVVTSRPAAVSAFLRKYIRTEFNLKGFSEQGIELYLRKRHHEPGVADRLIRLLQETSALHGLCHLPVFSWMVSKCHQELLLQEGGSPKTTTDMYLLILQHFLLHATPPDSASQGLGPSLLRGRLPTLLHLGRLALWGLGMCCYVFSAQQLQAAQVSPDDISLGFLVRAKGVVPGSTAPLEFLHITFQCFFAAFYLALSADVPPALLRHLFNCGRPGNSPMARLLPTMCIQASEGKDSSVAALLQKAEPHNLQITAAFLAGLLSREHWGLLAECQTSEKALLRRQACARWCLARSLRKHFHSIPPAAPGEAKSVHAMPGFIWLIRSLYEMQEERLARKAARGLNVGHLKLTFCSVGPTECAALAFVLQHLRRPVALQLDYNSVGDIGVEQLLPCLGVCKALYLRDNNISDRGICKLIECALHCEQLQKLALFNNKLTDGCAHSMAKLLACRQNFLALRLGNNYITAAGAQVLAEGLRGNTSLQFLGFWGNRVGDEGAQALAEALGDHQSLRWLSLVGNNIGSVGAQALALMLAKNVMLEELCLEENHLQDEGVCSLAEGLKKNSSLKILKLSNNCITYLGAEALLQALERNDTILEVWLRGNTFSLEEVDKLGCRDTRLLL
# Tumor necrosis factor = Tumor necrosis factor (Homo sapiens, UniProt P01375); assay: analog potency on TNFa NF-kB signaling – cell-based, revised, SAR follow-up (AID 2337); format: functional
# Tumor necrosis factor, sequence (P01375 whole entry, the tested form may be a part): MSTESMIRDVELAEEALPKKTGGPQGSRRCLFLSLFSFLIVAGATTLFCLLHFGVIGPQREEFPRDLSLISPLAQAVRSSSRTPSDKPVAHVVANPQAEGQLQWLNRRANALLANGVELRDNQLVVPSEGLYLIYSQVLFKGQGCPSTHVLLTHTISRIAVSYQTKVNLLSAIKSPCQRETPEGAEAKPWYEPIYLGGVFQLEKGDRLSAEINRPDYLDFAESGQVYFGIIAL
# [8] = target: T2, Nucleotide-binding oligomerization domain-containing protein 1 (Homo sapiens, UniProt Q9Y239); assay: blockers of NOD1 pathway activity – revised, SAR follow-up (AID 2333); format: functional
# T2 sequence (Q9Y239 whole entry): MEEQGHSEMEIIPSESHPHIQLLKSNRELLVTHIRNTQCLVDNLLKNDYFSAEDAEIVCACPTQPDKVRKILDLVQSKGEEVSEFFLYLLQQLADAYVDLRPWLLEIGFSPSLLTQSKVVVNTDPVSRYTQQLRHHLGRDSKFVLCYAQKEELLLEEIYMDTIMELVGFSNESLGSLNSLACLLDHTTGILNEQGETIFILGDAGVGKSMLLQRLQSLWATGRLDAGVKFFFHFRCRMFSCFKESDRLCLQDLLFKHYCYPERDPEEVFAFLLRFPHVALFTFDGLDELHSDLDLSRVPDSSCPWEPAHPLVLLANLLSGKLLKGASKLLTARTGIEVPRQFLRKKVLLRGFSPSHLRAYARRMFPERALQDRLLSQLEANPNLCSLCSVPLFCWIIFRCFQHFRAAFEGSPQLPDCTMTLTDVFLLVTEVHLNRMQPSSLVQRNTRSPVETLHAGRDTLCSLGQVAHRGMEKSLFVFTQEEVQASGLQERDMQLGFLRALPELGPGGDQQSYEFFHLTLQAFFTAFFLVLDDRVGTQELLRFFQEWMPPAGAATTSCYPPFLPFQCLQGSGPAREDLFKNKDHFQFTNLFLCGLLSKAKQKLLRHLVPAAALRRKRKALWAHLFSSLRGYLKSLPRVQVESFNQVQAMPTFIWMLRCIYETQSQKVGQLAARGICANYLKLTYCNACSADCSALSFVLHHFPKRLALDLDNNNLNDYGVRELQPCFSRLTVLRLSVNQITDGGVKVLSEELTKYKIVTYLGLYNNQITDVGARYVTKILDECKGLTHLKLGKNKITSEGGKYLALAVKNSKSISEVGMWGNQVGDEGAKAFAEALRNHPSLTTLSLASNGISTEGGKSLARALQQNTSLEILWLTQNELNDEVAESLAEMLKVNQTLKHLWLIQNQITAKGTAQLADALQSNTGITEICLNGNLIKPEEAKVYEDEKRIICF
# HeLa = assay: viability loss in HeLa cells – cell-based, 24 h, cherry-picked samples, cytotoxicity control, dose response (AID 504726); format: functional; conditions: Homo sapiens;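 also: potency for cytotoxicity as loss of luminescence signal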
# Phosphomannomutase 2 = target: T3, Phosphomannomutase 2 (Homo sapiens, UniProt O15305); assay: Counter screen SAR assay for PMM2 inhibitors via a fluorescence intensity assay. [Related pubchem assays (depositor defined):AID1545, AID1574]
# T3 sequence (O15305 whole entry): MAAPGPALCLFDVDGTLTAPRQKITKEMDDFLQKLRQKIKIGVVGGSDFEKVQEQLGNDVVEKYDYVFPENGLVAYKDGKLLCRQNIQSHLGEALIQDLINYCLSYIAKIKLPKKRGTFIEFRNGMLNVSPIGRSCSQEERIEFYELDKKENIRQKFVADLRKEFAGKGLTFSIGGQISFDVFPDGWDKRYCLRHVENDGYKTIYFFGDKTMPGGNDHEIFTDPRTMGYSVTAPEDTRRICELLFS
# [9] = target: Phosphoethanolamine/phosphocholine phosphatase (Homo sapiens, UniProt Q8TCT1); assay: SAR assay for compounds that inhibit PHOSPHO1. [Related pubchem assays (depositor defined):AID1545, AID1565, AID1574]
# Phosphoethanolamine/phosphocholine phosphatase, sequence (Q8TCT1 whole entry): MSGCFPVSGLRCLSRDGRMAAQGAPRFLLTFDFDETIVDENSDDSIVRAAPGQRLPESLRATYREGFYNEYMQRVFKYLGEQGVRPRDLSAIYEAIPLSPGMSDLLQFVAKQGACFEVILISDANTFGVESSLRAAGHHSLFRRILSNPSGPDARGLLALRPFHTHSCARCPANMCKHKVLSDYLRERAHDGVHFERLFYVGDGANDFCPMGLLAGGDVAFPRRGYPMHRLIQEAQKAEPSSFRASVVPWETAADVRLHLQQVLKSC
# [10] = target: T4, Mannose-6-phosphate isomerase (Homo sapiens, UniProt P34949); assay: phosphomannose isomerase inhibition – biochemical, fluorescence intensity, confirmation (AID 1535)
# T4 sequence (P34949 whole entry): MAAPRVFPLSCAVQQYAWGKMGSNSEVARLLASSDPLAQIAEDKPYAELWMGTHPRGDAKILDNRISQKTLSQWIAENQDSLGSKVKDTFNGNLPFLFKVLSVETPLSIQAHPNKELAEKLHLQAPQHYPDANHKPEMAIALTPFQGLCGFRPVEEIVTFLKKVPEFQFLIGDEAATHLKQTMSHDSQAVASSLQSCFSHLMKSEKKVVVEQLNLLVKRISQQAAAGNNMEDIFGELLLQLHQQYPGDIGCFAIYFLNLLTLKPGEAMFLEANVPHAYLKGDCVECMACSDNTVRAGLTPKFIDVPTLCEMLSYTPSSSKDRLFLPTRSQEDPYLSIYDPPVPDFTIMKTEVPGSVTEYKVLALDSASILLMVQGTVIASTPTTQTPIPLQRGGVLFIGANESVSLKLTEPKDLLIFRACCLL
# HEK293 [11] = assay: Fluorescence-based counterscreen for potentiators or agonists of NPY-Y1: cell-based high-throughput dose response assay for inhibitors of cyclic nucleotide gated ion channel (CNGC) activity. In this assay, the parental HEK293 cell line transfected with a cyclic-nucleotide gated ion channel (CNGC)-based cAMP sensor is used to measure inhibition of isoproterenol-induced CNGC …; format: functional; conditions: Homo sapiens
# Streptokinase A = target: T5, Streptokinase A (Streptococcus pyogenes serotype M1, UniProt P10520); assay: viability-normalized secreted streptokinase activity reduction – plasminogen activation absorbance, OD405, dose response (AID 1914); format: functional, Streptococcus pyogenes M1 GAS;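 also: secreted streptokinase activity via plasminogen activation per viability signal from cell pellet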
# T5 sequence (P10520 whole entry): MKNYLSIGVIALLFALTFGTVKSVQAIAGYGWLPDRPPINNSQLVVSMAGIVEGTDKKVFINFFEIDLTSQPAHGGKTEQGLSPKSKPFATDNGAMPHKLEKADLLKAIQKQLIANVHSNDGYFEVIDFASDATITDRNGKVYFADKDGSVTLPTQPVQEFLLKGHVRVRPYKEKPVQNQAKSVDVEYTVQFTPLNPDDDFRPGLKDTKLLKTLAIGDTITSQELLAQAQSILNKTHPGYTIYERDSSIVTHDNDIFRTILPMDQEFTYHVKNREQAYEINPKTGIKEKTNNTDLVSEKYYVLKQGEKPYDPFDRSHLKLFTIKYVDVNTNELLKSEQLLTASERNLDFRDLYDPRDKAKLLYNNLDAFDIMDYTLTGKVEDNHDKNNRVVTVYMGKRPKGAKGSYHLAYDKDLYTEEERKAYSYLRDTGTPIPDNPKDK
# Streptococcus = assay: GAS UMAA2166 growth inhibition – luminescence, BacTiterGlo, counter-screen for streptokinase expression inhibitor project, dose response (AID 1915); format: functional, organism-based;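 also: potency for reduction of bacterial viability or growth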
# [12] = tested on: Streptococcus sp. 'group A'; assay: Streptococcus pyogenes SK(-)GAS viability under kanamycin – luminescence, BacTiterGlo, confirmation, counter-screen for streptokinase expression inhibitor project, dose response (AID 1900); format: functional, organism-based
# [13] = target: T6, Neuropeptide Y receptor type 1 (Homo sapiens, UniProt P25929); assay: Fluorescence-based dose response cell-based high-throughput screening assay for potentiators or agonists of NPY-Y1.; format: functional
# T6 sequence (P25929 whole entry): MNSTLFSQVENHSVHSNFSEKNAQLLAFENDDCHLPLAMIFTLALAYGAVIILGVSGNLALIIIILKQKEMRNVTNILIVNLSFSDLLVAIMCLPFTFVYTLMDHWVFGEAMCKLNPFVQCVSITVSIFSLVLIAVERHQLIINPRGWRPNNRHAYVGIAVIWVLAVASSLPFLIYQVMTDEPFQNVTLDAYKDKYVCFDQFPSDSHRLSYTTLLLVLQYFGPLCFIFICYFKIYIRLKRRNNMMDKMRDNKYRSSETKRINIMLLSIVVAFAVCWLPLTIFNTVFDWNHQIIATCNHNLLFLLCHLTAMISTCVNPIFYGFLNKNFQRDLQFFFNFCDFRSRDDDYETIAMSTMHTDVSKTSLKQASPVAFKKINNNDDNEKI
# [14] = target: T7, Neuropeptide Y receptor type 2 (Homo sapiens, UniProt P49146); assay: Fluorescence counterscreen for potentiators or agonists of NPY-Y1: Cell-based high-throughput dose response assay for potentiators or agonists of NPY-Y2.; format: functional
# T7 sequence (P49146 whole entry): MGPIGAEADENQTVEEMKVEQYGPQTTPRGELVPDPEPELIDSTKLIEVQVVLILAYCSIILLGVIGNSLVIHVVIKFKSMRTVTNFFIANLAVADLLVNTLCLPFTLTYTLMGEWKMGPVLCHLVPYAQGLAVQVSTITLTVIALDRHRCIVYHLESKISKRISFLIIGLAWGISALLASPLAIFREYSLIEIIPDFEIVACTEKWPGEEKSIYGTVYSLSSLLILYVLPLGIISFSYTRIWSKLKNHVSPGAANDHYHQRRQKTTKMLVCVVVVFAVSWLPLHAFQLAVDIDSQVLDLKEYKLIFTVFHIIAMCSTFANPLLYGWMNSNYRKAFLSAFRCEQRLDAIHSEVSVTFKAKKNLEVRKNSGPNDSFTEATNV
# [15] = M. tuberculosis H37Rv growth inhibitors, H37Rv strain (AID 1626); format: functional
# [16] = target: T7, Neuropeptide Y receptor type 2; assay: Fluorescence-based counterscreen for agonists of NPY-Y1: cell-based high-throughput dose response assay for agonists of NPY-Y2.; format: functional
# [17] = viability of uninfected HEp-2 cells – cell-based, HTS, cytotoxicity control for RSV inhibitor project, dose response (AID 2410); format: functional; conditions: human respiratory syncytial virus
# CAAX prenyl protease 2 = CAAX prenyl protease 2 (Saccharomyces cerevisiae S288c, UniProt Q03530); format: biochemical
# CAAX prenyl protease 2, sequence (Q03530 whole entry): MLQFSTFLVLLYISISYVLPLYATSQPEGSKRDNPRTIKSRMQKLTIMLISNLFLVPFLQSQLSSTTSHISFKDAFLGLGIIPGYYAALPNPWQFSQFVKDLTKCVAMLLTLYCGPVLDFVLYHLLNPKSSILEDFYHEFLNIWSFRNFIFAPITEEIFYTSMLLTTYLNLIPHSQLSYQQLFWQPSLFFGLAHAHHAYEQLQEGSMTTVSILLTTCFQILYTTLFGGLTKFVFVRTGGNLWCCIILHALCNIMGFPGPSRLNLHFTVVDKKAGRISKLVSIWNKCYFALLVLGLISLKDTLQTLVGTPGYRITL
smiles,measurement,setting,value
Cc1ccc(NC(S)=NC(NC(=O)Cc2cccc3ccccc23)C(Cl)(Cl)Cl)cc1 (stereo not given),EC50,[1],18.3 µM (active)
same,AC50,[2],2.18 µM (active)
same,EC50,[3],13.1 µM (active)
same,Absolute IC50 (XBP1),X-box-binding protein 1,10 µM
N=c1c(C(=O)NCCc2ccccc2)cc2c(=O)n3ccccc3nc2n1CC1CCCO1 (stereo not given),IC50,[4],158 µM (not active)
same,IC50,[5],> 43.8 µM (not active)
Cn1nc(-c2ccc(Cl)cc2)cc1C(=O)NC1CCCc2c1cnn2-c1ccccc1F (stereo not given),IC50,HEK293 [6],> 20 µM (inactive)
same,IC50,[7],1.72 µM (active)
same,IC50,Tumor necrosis factor,2.72 µM (active)
same,IC50,[8],1.92 µM (active)
O=C(/C=C/c1ccco1)Nc1ccccc1C(=O)Nc1cccc(C(=O)O)c1,AC50,HeLa,180 µM (active)
O=c1c2c([N+](=O)[O-])cc([N+](=O)[O-])cc2sn1-c1ccccc1F,IC50,Phosphomannomutase 2,4.22 µM (active)
same,IC50,[9],0.0233 µM (active)
same,IC50,[10],1.45 µM (active)
Clc1ccc(-n2c(-c3cccc(Br)c3)nc3nc4ccccc4nc32)cc1,IC50,HEK293 [11],5.7 µM (active)
same,EC50,Streptokinase A,> 150 µM (not active)
same,EC50,Streptococcus,79.4 µM (active)
same,EC50,[12],1.58 µM (active)
same,EC50,[13],10.1 µM (not active)
same,EC50,[14],12 µM (not active)
same,IC50,[15],> 100 µM (active)
same,EC50,[16],2.98 µM (active)
O=C(CCc1ccccc1)Nc1sc2c(c1C(=O)O)CCCC2,CC50,[17],42.7 µM (active)
same,IC50,HEK293 [6],> 20 µM (inactive)
same,AC50,[2],28.3 µM (active)
same,IC50,[7],> 20 µM (inactive)
same,IC50,Tumor necrosis factor,> 20 µM (inactive)
same,IC50,[8],> 20 µM (inactive)
same,IC50,cells,39.6 µM (active)
O=c1c2c([N+](=O)[O-])cc([N+](=O)[O-])cc2sn1-c1ccc(F)cc1,IC50,Phosphomannomutase 2,2.46 µM (active)
same,IC50,[9],0.1 µM (active)
same,IC50,[10],0.709 µM (active)
COc1ccc(OC)c(NS(=O)(=O)c2c(C(=O)N3CCCCCC3)c(C)n(C)c2C)c1,IC50,[4],> 43.8 µM (not active)
same,IC50,[5],> 43.8 µM (not active)
CN(C)CCNC(=O)c1cccn(Cc2cc(C(F)(F)F)cc(C(F)(F)F)c2)c1=O,AC50,CAAX prenyl protease 2,> 100 µM (inactive)
